In patent publication US9139532B2, “Pyrazolyl guanidine F1F0-atpase inhibitors and therapeutic uses thereof” (Lycera Corporation, priority 2010, dated 2015):
Like-named read-outs stand apart in the source and are kept apart here.

Assays:
[1] = target: T1, F1F0-ATPase (Bos taurus, UniProt P13621); test: Inhibition of F1F0-ATPase activity in synthesizing ATP; type: biochemical; settings: inhibition of ATP synthesis by F1F0-ATPase; read-out: ATP Syn IC50
T1 construct: from tissue

[2] = test system: Ramos cells; test: Cytotoxicity in Ramos cells; type: cell-based; settings: cytotoxicity in Ramos cells, read-out: Ramos Cell EC50

Row | Structure (SMILES) | IC50 [1] [µM] | EC50 ([2]; Homo sapiens) [µM] | EC50 [2] [µM]
1 | CC1(NC(=NC(=O)c2ccc(F)c(F)c2)Nc2cc(-c3cc(F)cc(Cl)c3)n[nH]2)CCCC1 [Compound A-288] | < 10 | < 10 | –
2 | O=C(/N=C(\Nc1cc(-c2cc(F)cc(Cl)c2)n[nH]1)NC1CCCC1)c1ccc(F)c(F)c1 [Compound A-289] | < 10 | – | < 10
3 | CC(C)(C)N/C(=N/C(=O)c1ccc(F)c(F)c1)Nc1cc(-c2cc(F)cc(Cl)c2)n[nH]1 [Compound A-290] | < 10 | – | < 10
4 | O=C(/N=C(\Nc1cc(-c2cc(F)cc(F)c2)n[nH]1)NC1CCCC1)c1ccc(C(F)(F)F)cc1 [Compound A-291] | < 10 | – | < 10
5 | O=C(N=C(NCc1ccc(F)cc1Cl)Nc1cc(-c2cc(F)cc(F)c2)n[nH]1)c1ccc(C(F)(F)F)cc1 [Compound A-292] | < 10 | < 10 | –
6 | CC(C)CN/C(=N/C(=O)c1ccc(C(F)(F)F)cc1)Nc1cc(-c2cc(F)cc(F)c2)n[nH]1 [Compound A-293] | < 10 | – | < 10
7 | O=C(N=C(Nc1cc(-c2cc(F)cc(F)c2)n[nH]1)Nc1ccc(F)cc1Cl)c1ccc(C(F)(F)F)cc1 [Compound A-294] | < 10 | > 10 | –
8 | CC(C)C(C)N/C(=N/C(=O)c1ccc(C(F)(F)F)cc1)Nc1cc(-c2cc(F)cc(F)c2)n[nH]1 (stereo not drawn) [Compound A-295] | < 10 | – | < 10
9 | CC(C)NC(=NC(=O)c1ccc(C(F)(F)F)cc1)Nc1cc(-c2cc(F)cc(F)c2)n[nH]1 [Compound A-296] | < 10 | < 10 | –
10 | CCC(C)NC(=NC(=O)c1ccc(C(F)(F)F)cc1)Nc1cc(-c2cc(F)cc(F)c2)n[nH]1 (stereo not drawn) [Compound A-297] | < 10 | < 10 | –
11 | O=C(N=C(Nc1cc(-c2cc(F)cc(F)c2)n[nH]1)NC1CCC1)c1ccc(C(F)(F)F)cc1 [Compound A-298] | < 10 | < 10 | –
12 | CC(C)(C)N/C(=N/C(=O)c1ccc(C(F)(F)F)cc1)Nc1cc(-c2cc(F)cc(F)c2)n[nH]1 [Compound A-299] | < 10 | – | < 10
13 | CCC(C)CNC(=NC(=O)c1cccc(C#N)c1)Nc1cc(-c2ccc(Cl)cc2)n[nH]1 (stereo not drawn) [Compound A-300] | < 10 | < 10 | –
14 | CC(C)OCCCN/C(=N/C(=O)c1cccc(C#N)c1)Nc1cc(-c2ccc(Cl)cc2)n[nH]1 [Compound A-301] | < 10 | – | < 10
15 | N#Cc1cccc(C(=O)/N=C(\Nc2cc(-c3ccc(Cl)cc3)n[nH]2)NC2CCCC2)c1 [Compound A-302] | < 10 | – | < 10
16 | CC(C)CNC(=NC(=O)c1cccc(C#N)c1)Nc1cc(-c2ccc(Cl)cc2)n[nH]1 [Compound A-303] | < 10 | < 10 | –
17 | CC(C)C(C)N/C(=N/C(=O)c1cccc(C#N)c1)Nc1cc(-c2ccc(Cl)cc2)n[nH]1 (stereo not drawn) [Compound A-304] | < 10 | – | < 10
18 | CC(C)NC(=NC(=O)c1cccc(C#N)c1)Nc1cc(-c2ccc(Cl)cc2)n[nH]1 [Compound A-305] | < 10 | < 10 | –
19 | CCC(C)N/C(=N/C(=O)c1cccc(C#N)c1)Nc1cc(-c2ccc(Cl)cc2)n[nH]1 (stereo not drawn) [Compound A-306] | < 10 | – | < 10
20 | N#Cc1cccc(C(=O)/N=C(\Nc2cc(-c3ccc(Cl)cc3)n[nH]2)NC2CCC2)c1 [Compound A-307] | < 10 | – | < 10
21 | CC(C)(C)N/C(=N/C(=O)c1cccc(C#N)c1)Nc1cc(-c2ccc(Cl)cc2)n[nH]1 [Compound A-308] | < 10 | – | < 10
22 | N#Cc1cccc(C(=O)/N=C(\Nc2cc(-c3cc(F)cc(F)c3)n[nH]2)NC2CCCC2)c1 [Compound A-309] | < 10 | – | < 10
23 | CC(C)CN/C(=N/C(=O)c1cccc(C#N)c1)Nc1cc(-c2cc(F)cc(F)c2)n[nH]1 [Compound A-310] | < 10 | – | < 10
24 | CC(C)C(C)N/C(=N/C(=O)c1cccc(C#N)c1)Nc1cc(-c2cc(F)cc(F)c2)n[nH]1 (stereo not drawn) [Compound A-311] | < 10 | – | < 10
25 | CC(C)N/C(=N/C(=O)c1cccc(C#N)c1)Nc1cc(-c2cc(F)cc(F)c2)n[nH]1 [Compound A-312] | < 10 | – | < 10
26 | CCC(C)NC(=NC(=O)c1cccc(C#N)c1)Nc1cc(-c2cc(F)cc(F)c2)n[nH]1 (stereo not drawn) [Compound A-313] | < 10 | < 10 | –

Row | Structure (SMILES) | IC50 [1] [µM] | EC50 ([2]; Homo sapiens) [µM] | EC50 [2] [µM]
27 | N#Cc1cccc(C(=O)/N=C(\Nc2cc(-c3cc(F)cc(F)c3)n[nH]2)NC2CCC2)c1 [Compound A-314] | < 10 | – | < 10
28 | CC(C)(C)N/C(=N/C(=O)c1cccc(C#N)c1)Nc1cc(-c2cc(F)cc(F)c2)n[nH]1 [Compound A-315] | < 10 | – | > 10
29 | Cc1ccc(-c2cc(N/C(=N\C(=O)c3ccc(F)c(F)c3)NC3CCCC3)[nH]n2)cc1F [Compound A-316] | < 10 | – | < 10
30 | Cc1ccc(-c2cc(N/C(=N\C(=O)c3ccc(F)c(F)c3)NCc3ccc(F)cc3Cl)[nH]n2)cc1F [Compound A-317] | < 10 | – | < 10
31 | Cc1ccc(-c2cc(N/C(=N\C(=O)c3ccc(F)c(F)c3)Nc3ccc(F)cc3Cl)[nH]n2)cc1F [Compound A-318] | > 10 | – | < 10
32 | Cc1ccc(-c2cc(N/C(=N\C(=O)c3ccc(F)c(F)c3)NC(C)C)[nH]n2)cc1F [Compound A-319] | < 10 | – | < 10
33 | Cc1ccc(-c2cc(N/C(=N\C(=O)c3ccc(F)c(F)c3)NC3CCC3)[nH]n2)cc1F [Compound A-320] | < 10 | – | < 10
34 | CCC(C)CN/C(=N/C(=O)c1ccc(F)c(F)c1)Nc1cc(-c2ccc(C)c(F)c2)n[nH]1 (stereo not drawn) [Compound A-321] | < 10 | – | < 10
35 | Cc1ccc(-c2cc(N/C(=N\C(=O)c3ccc(F)c(F)c3)NCCCOC(C)C)[nH]n2)cc1F [Compound A-322] | < 10 | – | < 10
36 | Cc1ccc(-c2cc(N/C(=N\C(=O)c3ccc(F)c(F)c3)NCC(C)C)[nH]n2)cc1F [Compound A-323] | < 10 | – | < 10
37 | Cc1ccc(-c2cc(N/C(=N\C(=O)c3ccc(F)c(F)c3)NC(C)C(C)C)[nH]n2)cc1F (stereo not drawn) [Compound A-324] | < 10 | – | < 10
38 | CCC(C)N/C(=N/C(=O)c1ccc(F)c(F)c1)Nc1cc(-c2ccc(C)c(F)c2)n[nH]1 (stereo not drawn) [Compound A-325] | < 10 | – | < 10
39 | Cc1ccc(-c2cc(N/C(=N\C(=O)c3ccc(C(F)(F)F)cc3)NC3CCCC3)[nH]n2)cc1F [Compound A-326] | < 10 | – | > 10
40 | Cc1ccc(-c2cc(NC(=NC(=O)c3ccc(C(F)(F)F)cc3)NCc3ccc(F)cc3Cl)[nH]n2)cc1F [Compound A-327] | > 10 | > 10 | –
41 | Cc1ccc(-c2cc(N/C(=N\C(=O)c3ccc(C(F)(F)F)cc3)NC(C)C)[nH]n2)cc1F [Compound A-328] | < 10 | – | < 10
42 | Cc1ccc(-c2cc(N/C(=N\C(=O)c3ccc(C(F)(F)F)cc3)NC3CCC3)[nH]n2)cc1F [Compound A-329] | < 10 | – | < 10
43 | CCC(C)CN/C(=N/C(=O)c1ccc(C(F)(F)F)cc1)Nc1cc(-c2ccc(C)c(F)c2)n[nH]1 (stereo not drawn) [Compound A-330] | > 10 | – | > 10
44 | Cc1ccc(-c2cc(N/C(=N\C(=O)c3ccc(C(F)(F)F)cc3)NCC(C)C)[nH]n2)cc1F [Compound A-332] | < 10 | – | > 10
45 | Cc1ccc(-c2cc(N/C(=N\C(=O)c3ccc(C(F)(F)F)cc3)NC(C)C(C)C)[nH]n2)cc1F (stereo not drawn) [Compound A-333] | < 10 | – | > 10
46 | CCC(C)N/C(=N/C(=O)c1ccc(C(F)(F)F)cc1)Nc1cc(-c2ccc(C)c(F)c2)n[nH]1 (stereo not drawn) [Compound A-334] | < 10 | – | < 10
47 | CC(C)(C)c1n[nH]c(NC(=NC(=O)c2ccc(C(F)(F)F)cc2)NCc2ccc(F)cc2Cl)c1F [Compound A-335] | < 10 | < 10 | –
48 | CC(C)(C)c1n[nH]c(N/C(=N\C(=O)c2ccc(C(F)(F)F)cc2)Nc2ccc(F)cc2Cl)c1F [Compound A-336] | < 10 | – | < 10
49 | CNC(=O)c1cc(NC(=NC(=O)c2ccc(C(F)(F)F)cc2)Nc2ccc(F)cc2Cl)[nH]n1 [Compound A-337] | > 10 | > 10 | –
50 | COC(=O)c1cc(NC(=NC(=O)c2ccc(C(F)(F)F)cc2)NCc2ccc(F)cc2Cl)[nH]n1 [Compound A-338] | < 10 | < 10 | –
51 | CC(C)(C)N/C(=N/C(=O)c1ccc(C(F)(F)F)cc1)Nc1[nH]nc(C(C)(C)C)c1F [Compound A-340] | < 10 | – | < 10
